Measurements taken from ChEMBL document CHEMBL3745625, “Design and synthesis of novel androgen receptor antagonists via molecular modeling” (Bioorg Med Chem, 2016).
Activity calls are given as the source filed them. No cut-off for these calls is given here.

What was measured:
[1] = tested on: LNCaP; assay: Cytotoxicity against human LNCAP cells assessed as reduction in cell viability at 10 uM after 3 days by MTT assay in presence of DHT and E2; type: functional, cell-based
[2] = tested on: LNCaP; assay: Cytotoxicity against human LNCAP cells assessed as reduction in cell viability after 4 days by MTT assay in presence of DHT and E2; type: functional, cell-based; details: 96 h
[3] = tested on: LNCaP; assay: Cytotoxicity against human LNCAP cells assessed as growth inhibition at 10 uM after 5 days by MTT assay relative to control; type: functional
[4] = tested on: C2C12; assay: Cytotoxicity against mouse C2C12 cells assessed as reduction in cell viability at 10 uM after 3 days by MTT assay; type: cell-based; details: c2c12, 72 h
[5] = target: T1, Androgen receptor (Mus musculus) (UniProt P19091); assay: Antagonist activity at mouse androgen receptor expressed in mouse C2C12 cells at 5 uM pretreated for 1 day measured 36 hrs post transfection by luciferase reporter gene assay in presence of DHT; type: cell-based
T1 sequence (whole entry): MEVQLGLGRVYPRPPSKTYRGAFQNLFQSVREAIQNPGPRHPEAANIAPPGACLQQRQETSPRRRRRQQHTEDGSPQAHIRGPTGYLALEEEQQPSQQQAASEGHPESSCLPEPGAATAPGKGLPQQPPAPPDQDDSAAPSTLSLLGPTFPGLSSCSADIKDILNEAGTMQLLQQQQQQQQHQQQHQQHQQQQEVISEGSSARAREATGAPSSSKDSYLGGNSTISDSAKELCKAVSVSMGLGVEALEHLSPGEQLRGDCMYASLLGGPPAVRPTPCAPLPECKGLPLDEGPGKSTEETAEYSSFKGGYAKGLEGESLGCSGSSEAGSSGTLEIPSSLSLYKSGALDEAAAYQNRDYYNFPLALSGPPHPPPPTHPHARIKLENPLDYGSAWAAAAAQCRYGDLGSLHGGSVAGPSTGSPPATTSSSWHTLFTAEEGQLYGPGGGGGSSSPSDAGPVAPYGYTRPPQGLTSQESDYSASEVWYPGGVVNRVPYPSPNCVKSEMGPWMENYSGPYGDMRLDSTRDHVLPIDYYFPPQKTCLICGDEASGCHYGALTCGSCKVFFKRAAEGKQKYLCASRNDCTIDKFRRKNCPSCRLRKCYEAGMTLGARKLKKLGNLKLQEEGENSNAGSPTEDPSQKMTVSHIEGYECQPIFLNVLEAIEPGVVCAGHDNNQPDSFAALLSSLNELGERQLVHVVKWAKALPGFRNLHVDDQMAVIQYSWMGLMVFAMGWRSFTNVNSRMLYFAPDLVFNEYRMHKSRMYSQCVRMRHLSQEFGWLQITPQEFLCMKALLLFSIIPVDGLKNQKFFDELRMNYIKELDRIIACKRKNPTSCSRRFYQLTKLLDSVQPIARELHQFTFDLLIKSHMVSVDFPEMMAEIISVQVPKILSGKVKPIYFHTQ

[6] = target: T2, Glucocorticoid receptor (Homo sapiens) (UniProt P04150); assay: Antagonist activity at glucocorticoid receptor (unknown origin) expressed in mouse C2C12 cells at 5 uM pretreated for 1 day measured 36 hrs post transfection by luciferase reporter gene assay in presence of GR agonist […]; type: cell-based
T2 sequence (whole entry): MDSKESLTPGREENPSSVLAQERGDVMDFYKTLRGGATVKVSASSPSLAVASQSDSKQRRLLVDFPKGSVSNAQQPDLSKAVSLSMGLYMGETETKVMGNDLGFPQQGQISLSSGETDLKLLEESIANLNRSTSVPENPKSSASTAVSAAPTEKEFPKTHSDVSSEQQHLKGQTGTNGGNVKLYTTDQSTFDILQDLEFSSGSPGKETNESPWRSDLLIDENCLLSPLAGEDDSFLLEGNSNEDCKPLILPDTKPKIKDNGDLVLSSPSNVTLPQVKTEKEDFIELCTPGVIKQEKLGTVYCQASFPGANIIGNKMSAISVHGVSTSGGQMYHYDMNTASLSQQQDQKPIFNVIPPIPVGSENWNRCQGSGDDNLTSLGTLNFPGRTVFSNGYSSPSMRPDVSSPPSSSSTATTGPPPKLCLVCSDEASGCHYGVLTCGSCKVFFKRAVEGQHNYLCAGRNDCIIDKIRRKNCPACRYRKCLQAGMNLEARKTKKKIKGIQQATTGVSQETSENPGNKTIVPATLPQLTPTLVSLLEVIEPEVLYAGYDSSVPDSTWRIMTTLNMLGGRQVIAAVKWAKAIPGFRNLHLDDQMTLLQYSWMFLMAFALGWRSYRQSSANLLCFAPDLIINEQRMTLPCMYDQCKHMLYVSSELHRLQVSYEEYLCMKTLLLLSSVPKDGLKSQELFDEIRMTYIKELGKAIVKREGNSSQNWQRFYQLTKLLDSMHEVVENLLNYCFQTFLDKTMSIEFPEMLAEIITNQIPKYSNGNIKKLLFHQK

[7] = target: T3, Estrogen receptor (Homo sapiens) (UniProt P03372); assay: Antagonist activity at human estrogen receptor expressed in mouse C2C12 cells at 5 uM pretreated for 1 day measured 36 hrs post transfection by luciferase reporter gene assay in presence of ER agonist estradiol; type: cell-based
T3 sequence (whole entry): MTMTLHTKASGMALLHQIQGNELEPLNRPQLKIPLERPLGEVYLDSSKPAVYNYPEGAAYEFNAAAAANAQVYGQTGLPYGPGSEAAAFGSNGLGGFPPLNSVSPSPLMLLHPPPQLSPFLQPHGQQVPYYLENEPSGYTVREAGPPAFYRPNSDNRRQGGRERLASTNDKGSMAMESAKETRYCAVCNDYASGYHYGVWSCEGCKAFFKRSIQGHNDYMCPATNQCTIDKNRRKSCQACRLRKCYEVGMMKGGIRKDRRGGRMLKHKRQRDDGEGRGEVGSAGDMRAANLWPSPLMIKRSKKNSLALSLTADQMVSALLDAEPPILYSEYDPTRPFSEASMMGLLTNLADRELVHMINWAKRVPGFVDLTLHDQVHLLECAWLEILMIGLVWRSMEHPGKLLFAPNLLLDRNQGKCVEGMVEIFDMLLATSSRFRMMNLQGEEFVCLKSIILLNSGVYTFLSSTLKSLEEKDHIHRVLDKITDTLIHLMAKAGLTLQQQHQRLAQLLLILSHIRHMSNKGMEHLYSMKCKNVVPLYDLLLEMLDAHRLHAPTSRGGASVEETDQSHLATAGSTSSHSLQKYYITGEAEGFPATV

Structure (SMILES) | Activity [1] | IC50 [2] [nM] | growth inhibition (GI) [3] | Activity [4] | inhibition [5] | inhibition [6] | inhibition of growth at 10 µM ([3]; 120 h, read-out: GI) [%] | inhibition [7]
CCCOc1ccc2c(c1)CCN(c1ccc(C(=O)Nc3cccc(C)n3)cn1)C2 | Active | 1010 | Active | Non-toxic | Active | inactive |  | 
CCCCOc1ccc2c(c1)CCN(c1ccc(C(=O)Nc3cccc(C)n3)cn1)C2 | Active | 410 | Active | Non-toxic | Active | inactive |  | 
Cc1cccc(NC(=O)c2ccc(N3CCc4ccccc4C3)nc2)n1 |  | 4460 |  |  |  |  |  | 
CC(O)(CS(=O)(=O)c1ccc(F)cc1)C(=O)Nc1ccc(C#N)c(C(F)(F)F)c1 (stereo not drawn) [BICALUTAMIDE] |  | 2380 |  |  |  |  |  | 
COc1cccc(NC(=O)c2cnc(N3CCc4ccccc4C3)nc2)c1 | Active | 580 |  | Non-toxic | Active | inactive |  | 
COc1ccc2c(c1)CCN(c1cnc(C(=O)Nc3cccc(C)n3)cn1)C2 | Active | 490 | Active | Non-toxic | Active | inactive |  | 
Cc1cccc(NC(=O)c2ccc(N3CCc4cc(OCCCc5ccccc5)ccc4C3)nc2)n1 | Active | 350 |  | Non-toxic | Active | inactive | 80 | 
Cc1cccc(NC(=O)c2ccc(N3CCc4cc(O)ccc4C3)nc2)n1 | Active | 1250 | Active | Non-toxic | Active | inactive |  | Active
